Tests used:
iNOS = biological target: T1, iNOS (Homo sapiens, UniProt P35228); assay: NOS inhibition assay (L-citrulline, fluorometric detection), iNOS; assay type: biochemical; conditions: for inhibition at 1 µM: compound at 1 µM; for eNOS/iNOS selectivity: ratio of eNOS IC50 to iNOS IC50
T1 construct: purchased Enzo Life Sciences, Inc. (New York, USA)
Experimental: The investigated compounds were tested at 1 µM against the iNOS and 10 µM against the eNOS to determine their isoform selectivity. Because of its critical role in cardiovasculature, inhibiting the constitutive enzyme eNOS should be avoided.
Refer to Supplementary Appendix SA1 for more details.
4.2.4. NOS inhibition assay
Recombinant human iNOS was purchased from Enzo Life Sciences, Inc. (New York, USA).
Recombinant bovine eNOS was purchased from Cayman Chemical (Ann Arbor, USA). To measure iNOS activity, 10 μL of enzyme stock solution were added to 80 μL of 2-[4-(2-hydroxyethyl) piperazin-1-yl]ethanesulfonic acid (HEPES) buffer pH = 7.4, 100 mM, containing 0.1 mM CaCl2, 1 mM D,L-dithiothreitol (DTT), 0.5 mg/mL BSA, 10 μM flavin mononucleotide (FMN), 10 μM flavin adenine dinucleotide (FAD), 30 μM tetrahydrobiopterin (BH4), 10 μg/mL calmodulin (CaM), 10 μM L-Arg. For the eNOS activity evaluation, 25 μL of the enzyme stock solution were added to 65 μL of HEPES buffer containing 2 mM CaCl2 and the same cofactors […]
μM) were added to the enzyme assay solution, followed by pre -incubation of 15 min at 37 ◦C.
Each reaction was initiated by the addition of 10 μL of NADPH 7.5 mM, carried out at 37 ◦C for 30 min, and stopped by adding 500 μL of ice -cold CH3CN. The mixture was brought to dryness under vacuum and eventually stored at – 20 ◦C, before the HPLC analysis. […]

MCF-7 cells = assay: Antiproliferative assay, MCF-7; assay type: cell-based; conditions: Homo sapiens, MCF7; MCF-7 breast cancer cell line; read-out: Antiproliferative activity IC50 ± SEM, MCF-7
Experimental: (§1) 4.2.2. Assay for antiproliferative effect
(§2) To explore the antiproliferative potential of compounds propidium iodide fluorescence assay was performed using different cell lines such as Panc-1 (pancreas cancer cell line), MCF-7 (breast cancer cell line), HT-29 (colon cancer cell line) and A-549 (epithelial cancer cell line), respectively. To calculate the total nuclear DNA, a fluorescent dye (propidium iodide, PI) is used which can attach to the DNA, thus offering a quick and precise technique. PI cannot pass through the cell membrane and its signal intensity can be considered as directly proportional to quantity of cellular DNA. Cells whose cell membranes are damaged or have changed permeability are counted as dead ones. The assay was performed by seeding the cells of different cell lines at a density of 3000-7500 cells/well (in200μl medium) in culture plates followed by incubation for 24h at 37 °C in humidified 5%CO2/95% air atmospheric conditions. The medium was removed; the compounds were added to the plates at 10 μM concentrations (in 0.1% DMSO) in triplicates, followed by incubation for 48h. DMSO (0.1%) was used as control. After incubation, medium was removed followed by the addition of PI (25 μl, 50μg/mL in water/medium) to each well of the plates. At - 80 °C, the plates were allowed to freeze for 24 h, followed by thawing at 25 °C. A fluorometer (Polar-Star BMG Tech) was used to record the readings at excitation and emission wavelengths of 530 and 620 nm for each well. The percentage cytotoxicity of compounds was calculated using […]
(§3) Where ATC= Absorbance of treated cells and AC= Absorbance of control. Erlotinib was used as positive control in the assay.

A-549 cells = assay: Antiproliferative assay, A-549; assay type: cell-based; conditions: Homo sapiens, A549; A-549 lung cancer cell line; read-out: Antiproliferative activity IC50 ± SEM, A-549
Experimental: as §1, §2, §3

HT-29 cells = assay: Antiproliferative assay, HT-29; assay type: cell-based; conditions: Homo sapiens; HT-29 colon cancer cell line; read-out: Antiproliferative activity IC50 ± SEM, HT-29
Experimental: as §1, §2, §3

[1] = system: four human cancer cell lines (A-549, MCF-7, Panc-1, HT-29); assay: Antiproliferative assay, average over four cancer cell lines (GI50); assay type: cell-based; conditions: for IC50: average of IC50 against A-549, MCF-7, Panc-1, HT-29
Experimental: See Supplementary Appendix SA1 for more details.
as §1
To explore the antiproliferative potential of compounds propidium iodide fluorescence assay was performed using different cell lines such as Panc-1 (pancreas cancer cell line), MCF-7 (breast […]
respectively. To calculate the total nuclear DNA, a fluorescent dye (propidium iodide, PI) is used which can attach to the DNA, thus offering a quick and precise technique. PI cannot pass through the cell membrane and its signal intensity can be considered as directly proportional to quantity of cellular DNA. Cells whose cell membranes are damaged or have changed permeability are counted as dead ones. The assay was performed by seeding the cells of different cell lines at a density of […]
The medium was removed; the compounds were added to the plates at 10 μM concentrations (in 0.1% DMSO) in triplicates, followed by incubation for 48h. DMSO (0.1%) was used as control. After incubation, medium was removed followed by the addition of PI (25 μl, 50μg/mL in water/medium) to each well of the plates. At - 80 °C, the plates were allowed to freeze for 24 h, followed by thawing at 25 °C. A fluorometer (Polar-Star BMG Tech) was used to record the readings at excitation and emission wavelengths of 530 and 620 nm for each well. The percentage cytotoxicity of compounds was calculated using […]
Where ATC= Absorbance of treated cells and AC= Absorbance of control. […]
positive control in the assay.

inhibition at 1 µM (iNOS)	IC50 (MCF-7 cells)	IC50 (A-549 cells)	IC50 (HT-29 cells)	IC50 ([1]; Homo sapiens)	Fold more effective than compound 11 (GI50) [1]	IC50 (iNOS)	eNOS/iNOS selectivity (iNOS)	Fold potency relative to Erlotinib (GI50) ([1]; GI50 24 nM vs Erlotinib […] nM)	IC50 [1]	SMILES
62 ± 2%	34 ± 3 nM	31 ± 3 nM	32 ± 3 nM	32 nM						CCc1c2cc(Cl)ccc2n2c(C)c(C(=O)OCc3ccccc3)[nH]c(=O)c12 [Compound 5, benzyl 8-chloro-10-ethyl-4-methyl-1-oxo-1,2-dihydropyrazino [1,2-a]indole-3-carboxylate]
73 ± 2%	30 ± 3 nM	28 ± 2 nM	29 ± 2 nM	29 nM	at least 1.4 fold					CCc1c2cc(Cl)ccc2n2c(C)c(C(=O)NCc3ccccc3)[nH]c(=O)c12 [Compound 7, N-benzyl-8-chloro-10-ethyl-4-methyl-1-oxo-1,2-dihydropyrazino [1,2-a]indole-3-carboxamide]
87 ± 3%	25 ± 2 nM	23 ± 2 nM	25 ± 2 nM	25 nM		75 ± 2 nM	>670	1.4 fold	24 nM	CCc1c2cc(Cl)ccc2n2cc(Cc3ccccc3)n(C)c(=O)c12 [Compound 12, 3-Benzyl-8-chloro-10-ethyl-2-methylpyrazino[1,2-a]indol-1(2H)-one]
81 ± 3%	28 ± 2 nM	25 ± 2 nM	25 ± 2 nM	28 nM	at least 1.4 fold	98 ± 3 nM	>510		26 nM	CCc1c2cc(Cl)ccc2n2cc(-c3ccccc3)[nH]c(=O)c12 [Compound 16, 8-Chloro-10-ethyl-3-phenylpyrazino [1,2-a]indol-1(2H)-one]
